US7704994B2, “Benzazepine derivatives for the treatment of neurological disorders” (Glaxo Group Limited, priority 2002, dated 2010)
Where “and” joins values, the source holds several entries; their conditions need not be identical. Equal entries are not always repeated. Where two headings read alike, the source gives them in different places.

Target: T1, human histamine H3 receptor (Homo sapiens, UniProt Q9Y5N1)
T1 construct: expressed in transfected cells; host or cells: CHO K1 cells carrying pSwitch, transfected with pGeneH3 and induced with mifepristone; membranes of clone 3H3
T1 sequence (Q9Y5N1 whole entry): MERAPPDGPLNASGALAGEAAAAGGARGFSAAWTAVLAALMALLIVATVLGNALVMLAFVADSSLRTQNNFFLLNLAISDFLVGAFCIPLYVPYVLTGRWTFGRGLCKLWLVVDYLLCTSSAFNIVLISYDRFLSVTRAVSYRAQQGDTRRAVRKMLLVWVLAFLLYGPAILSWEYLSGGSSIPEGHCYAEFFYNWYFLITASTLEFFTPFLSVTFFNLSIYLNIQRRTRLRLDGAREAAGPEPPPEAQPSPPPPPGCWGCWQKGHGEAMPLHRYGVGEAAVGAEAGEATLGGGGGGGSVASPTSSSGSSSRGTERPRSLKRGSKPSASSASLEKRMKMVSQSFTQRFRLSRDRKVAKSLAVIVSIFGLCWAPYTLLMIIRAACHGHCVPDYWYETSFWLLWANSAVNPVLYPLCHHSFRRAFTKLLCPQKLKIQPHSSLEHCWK
Test: Histamine H3 functional antagonist assay
Type: biochemical
Description: A membrane preparation containing histamine H3 receptors may be prepared in accordance with the following procedures:
Ligated DNA was transformed into competent DH5α E. coli host bacterial cells and plated onto Luria Broth (LB) agar containing Zeocin™ (an antibiotic which allows the selection of cells expressing the sh ble gene which is present on pGene and pSwitch) at 50 μg ml^−1. Colonies containing the re-ligated plasmid were identified by restriction analysis. DNA for transfection into mammalian cells was prepared from 250 ml cultures of the host bacterium containing the pGeneH3 plasmid and isolated using a DNA preparation kit (Qiagen Midi-Prep) as per manufacturers guidelines (Qiagen).
CHO K1 cells previously transfected with the pSwitch regulatory plasmid (InVitrogen) were seeded at 2×10e6 cells per T75 flask in Complete Medium, containing Hams F12 (GIBCOBRL, Life Technologies) medium supplemented with 10% v/v dialysed foetal bovine serum, L-glutamine, and hygromycin (100 μg ml^−1), 24 hours prior to use. Plasmid DNA was transfected into the cells using Lipofectamine plus according to the manufacturers guidelines (InVitrogen). 48 hours post transfection cells were placed into complete medium supplemented with 500 μg ml^−1 Zeocin™.
10-14 days post selection 10 nM Mifepristone (InVitrogen), was added to the culture medium to induce the expression of the receptor. […] Approximately 1×10e7 cells were examined for receptor expression by staining with a rabbit polyclonal antibody, 4a, raised against the N-terminal domain of the histamine H3 receptor, incubated on ice for 60 minutes, followed by two washes in sorting medium. […] Following two further washes with Sorting Medium, cells were filtered through a 50 μm Filcon™ (BD Biosciences) and then analysed on a FACS Vantage SE Flow Cytometer fitted with an Automatic Cell Deposition Unit. […] Positively stained cells were sorted as single cells into 96-well plates, containing Complete Medium containing 500 μg ml^−1 Zeocin™ and allowed to expand before reanalysis for receptor expression via antibody and ligand binding studies.
All steps of the protocol are carried out at 4° C. and with pre-cooled reagents. […] The cells are then homogenised by 2×15 second bursts in a 1 litre glass Waring blender, followed by centrifugation at 500 g for 20 minutes. The supernatant is then spun at 48,000 g for 30 minutes. […]
The plate is then incubated on a shaker at room temperature for 30 minutes followed by centrifugation for 5 minutes at 1500 rpm. The plate is read between 3 and 6 hours after completion of centrifuge run in a Wallac Microbeta counter on a 1 minute normalised tritium count protocol. Data is analysed using a 4-parameter logistic equation. […]

[1] = membranes of CHO K1 cells expressing human histamine H3, [35S]GTPγS SPA, histamine 0.3 μM, read-out: antagonism (pKb) (converted)

Row | Kb [1] | SMILES | Kb
1 | – | c1ccc(COc2ccc3c(c2)CCN(C2CCC2)CC3)cc1 [Example 1, 7-Benzyloxy-3-cyclobutyl-2,3,4,5-tetrahydro-1H-benzo[d]azepine] | 0.0316 to 1 nM
2 | 0.0316 to 1 nM | O=C(N1CCOCC1)N1CCC(Oc2ccc3c(c2)CCN(C2CCC2)CC3)CC1 [Example 52] | –
3 | 0.0316 to 1 nM and < 0.316 nM | CNC(=O)c1ccc(Oc2ccc3c(c2)CCN(C2CCC2)CC3)nc1 [Example 121, 6-(3-Cyclobutyl-2,3,4,5-tetrahydro-1H-benzo[d]azepin-7-yloxy)-N-methyl-nicotinamide] | –
4 | 0.0316 to 1 nM | O=C1CCCN1c1ccc(Oc2ccc3c(c2)CCN(C2CCC2)CC3)nc1 [Example 217, 1-{6-[(3-Cyclobutyl-2,3,4,5-tetrahydro-1H-3-benzazepin-7-yl)oxy]-3-pyridinyl}-2-pyrrolidinone] | –
